From patent publication US20160046618A1, “Cyclopropyl Fused Thiazin-2-Amine Compounds as Beta-Secretase Inhibitors and Methods of Use” (AMGEN INC., priority 2014, published 2016)
Where two headings read alike, the source gives them in different places.

How the values were obtained:
[1] = target: human recombinant BACE1 (Homo sapiens (Human), UniProt P56817); assay: In vitro enzymatic BACE1 FRET assay; type: biochemical; conditions: read-out: IC50 IP (μM) BACE1 enzyme
Summary of the method: (§1)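 Read-out: dequenched fluorescence, excitation 488 nm, emission 590 nm, after proteolysis of a quenched peptide spanning the BACE cleavage site. Substrate at 50 nM, 1 h incubation, termination by Tris addition to neutral pH.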

[2] = target: human recombinant BACE2 (Homo sapiens (Human), UniProt Q9Y5Z0); assay: In vitro enzymatic BACE2 FRET assay; type: biochemical; conditions: read-out: IC50 IP (μM) BACE2 enzyme
human recombinant BACE2, sequence (Q9Y5Z0 63-518): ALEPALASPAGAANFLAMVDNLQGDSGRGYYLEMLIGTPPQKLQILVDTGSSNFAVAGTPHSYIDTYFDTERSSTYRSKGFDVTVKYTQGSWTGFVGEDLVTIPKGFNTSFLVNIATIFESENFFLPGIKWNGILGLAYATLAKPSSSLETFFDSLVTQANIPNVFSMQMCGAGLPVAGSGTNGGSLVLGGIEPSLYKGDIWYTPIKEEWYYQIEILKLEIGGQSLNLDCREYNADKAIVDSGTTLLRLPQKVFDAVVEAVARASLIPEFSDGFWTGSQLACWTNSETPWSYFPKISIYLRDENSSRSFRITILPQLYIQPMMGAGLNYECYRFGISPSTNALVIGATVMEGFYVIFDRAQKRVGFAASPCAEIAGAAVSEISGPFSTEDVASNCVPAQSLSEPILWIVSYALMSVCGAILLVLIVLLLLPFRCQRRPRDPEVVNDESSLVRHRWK
Summary of the method: as §1

[3] = tested on: Aβ40 in conditioned medium of cells stably expressing Amyloid Precursor Protein (APP); assay: In vitro BACE-1 cell-based assay (Aβ40 sandwich ELISA); conditions: read-out: IC50 IP (μM) BACE1 cell
Summary of the method: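 Read-out: time-resolved fluorescence (Streptavidin-Europium) of Aβ40 captured by pAb40 and detected with biotinylated 6E10 from supernatants of APP-stable cells. Cells were exposed to compound for 24 h, 10-point dose response, top dose 100 μM or 10 μM, 0.1% DMSO. IC50 fitted to percent of control.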

[4] = target: Recombinant Cat D (Homo sapiens (Human), UniProt P07339); assay: In vitro enzymatic Cathepsin D (Cat D) FRET assay; type: biochemical; conditions: read-out: IC50 IP (μM) CatD
Recombinant Cat D, sequence (P07339 65-412): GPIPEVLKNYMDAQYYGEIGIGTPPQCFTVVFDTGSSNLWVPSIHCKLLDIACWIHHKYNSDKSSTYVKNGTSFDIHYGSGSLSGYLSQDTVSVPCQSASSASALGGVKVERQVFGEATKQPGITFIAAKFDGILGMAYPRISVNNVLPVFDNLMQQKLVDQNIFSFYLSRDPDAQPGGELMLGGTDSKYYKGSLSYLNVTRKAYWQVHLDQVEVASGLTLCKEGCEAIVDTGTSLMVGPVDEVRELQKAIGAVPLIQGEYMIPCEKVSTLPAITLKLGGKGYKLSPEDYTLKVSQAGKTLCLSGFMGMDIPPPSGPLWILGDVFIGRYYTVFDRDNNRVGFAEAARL
Summary of the method: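 Recombinant Cat D expressed in CHO cells, assayed in 0.05 M citrate pH 3.5 with 5 mM CHAPS and 10% DMSO final. Reaction started with 20 nM FRET peptide substrate, incubated one hour, then stopped by Tris buffer to neutral pH; fluorescence read at ex 500/em 580 nm.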

human recombinant BACE1, sequence (P56817 46-501): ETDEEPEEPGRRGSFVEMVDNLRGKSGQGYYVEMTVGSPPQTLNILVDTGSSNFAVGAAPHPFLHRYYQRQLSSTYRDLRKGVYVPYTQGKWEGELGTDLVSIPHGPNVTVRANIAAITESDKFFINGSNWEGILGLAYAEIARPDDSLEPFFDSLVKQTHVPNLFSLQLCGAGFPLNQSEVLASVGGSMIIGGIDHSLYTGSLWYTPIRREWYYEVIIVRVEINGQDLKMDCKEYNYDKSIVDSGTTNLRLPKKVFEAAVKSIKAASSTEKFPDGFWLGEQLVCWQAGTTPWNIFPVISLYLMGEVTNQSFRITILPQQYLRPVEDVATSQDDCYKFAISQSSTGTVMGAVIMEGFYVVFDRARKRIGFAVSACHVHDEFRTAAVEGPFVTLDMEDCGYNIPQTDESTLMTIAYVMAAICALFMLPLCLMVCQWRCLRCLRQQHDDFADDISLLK

| Compound | IC50 [1] | IC50 [2] | IC50 [3] | IC50 [4] | IC50 ([1]; BACE1 FRET enzyme assay) | IC50 ([2]; BACE2 FRET enzyme assay) | IC50 ([3]; BACE1 cell-based assay) | IC50 ([4]; Cathepsin D FRET enzyme assay) |
| --- | --- | --- | --- | --- | --- | --- | --- | --- |
| C[C@]1(c2cc(NC(=O)c3cnc(OCC(F)(F)F)cn3)ccc2F)N=C(N)S[C@@]2(C(=O)N3CCOCC3)C[C@H]21 [Example 998, N-(3-((1S,5S,6S)-3-amino-5-methyl-1-(morpholine-4-carbonyl)-2-thia-4-azabicyclo[4.1.0]hept-3-en-5-yl)-4-fluorophenyl)-5-(2,2,2-trifluoroethoxy)pyrazine-2-carboxamide] | 0.146 nM | 0.0754 µM | 0.0017 µM | > 400 µM |  |  |  |  |
| COC[C@]12C[C@H]1[C@@](C)(c1cc(NC(=O)c3ncc(OCc4ncco4)cc3C)ccc1F)N=C(N)S2 [Example 644, N-(3-((1S,5S,6S)-3-amino-1-(methoxymethyl)-5-methyl-2-thia-4-azabicyclo[4.1.0]hept-3-en-5-yl)-4-fluorophenyl)-3-methyl-5-(1,3-oxazol-2-ylmethoxy)-2-pyridinecarboxamide] | 14 nM | 0.207 µM | 0.0137 µM | > 400 µM |  |  |  |  |
| C[C@]1(c2cc(NC(=O)c3cnc(OCC(F)(F)F)cn3)ccc2F)N=C(N)S[C@@]2(C(=O)NCC(F)F)C[C@H]21 [Example 999, (1S,5S,6S)-3-amino-N-(2,2-difluoroethyl)-5-(2-fluoro-5-(5-(2,2,2-trifluoroethoxy)pyrazine-2-carboxamido)phenyl)-5-methyl-2-thia-4-azabicyclo[4.1.0]hept-3-ene-1-carboxamide] | 0.09 nM | 0.0755 µM | 0.00613 µM | 180 µM |  |  |  |  |
| C#CCOc1cnc(C(=O)Nc2cc(F)c(F)c([C@@]3(C)N=C(N)S[C@@]4(C(F)F)C[C@@H]34)c2)c(C)c1 [Example 685, N-(3-((1S,5S,6S)-3-amino-1-(difluoromethyl)-5-methyl-2-thia-4-azabicyclo[4.1.0]hept-3-en-5-yl)-4,5-difluorophenyl)-3-methyl-5-(2-propyn-1-yloxy)-2-pyridinecarboxamide] | 1.12 nM | 0.018 µM | 0.0197 µM | 463 µM |  |  |  |  |
| Cc1nc(COc2cnc3c(Nc4cc(F)c(F)c([C@@]5(C)N=C(N)S[C@@]6(C(F)F)C[C@@H]56)c4)nccc3n2)c(C)o1 [Example 886, N-(3-((1S,5S,6S)-3-amino-1-(difluoromethyl)-5-methyl-2-thia-4-azabicyclo[4.1.0]hept-3-en-5-yl)-4,5-difluorophenyl)-2-((2,5-dimethyl-1,3-oxazol-4-yl)methoxy)pyrido[3,4-b]pyrazin-5-amine] | 1.1 nM | 0.0278 µM | 0.0411 µM | 136 µM |  |  |  |  |
| C[C@]1(c2cc(Nc3ncnc4cc(C#N)cnc34)ccc2F)N=C(N)S[C@@H]2[C@H]1C2(F)F [Example 101, 4-((3-((1R,5S,6R)-3-amino-7,7-difluoro-5-methyl-2-thia-4-azabicyclo[4.1.0]hept-3-en-5-yl)-4-fluorophenyl)amino)pyrido[3,2-d]pyrimidine-7-carbonitrile] |  |  |  |  | 19.7 nM | 0.023 µM | 0.094 µM | 720 µM |
| N#Cc1cnc2c(Nc3ccc(F)c([C@@]4(CF)N=C(N)S[C@@]5(CO)C[C@H]54)c3)ncnc2c1 [Example 80, 4-((3-((1S,5S,6S)-3-amino-5-(fluoromethyl)-1-(hydroxymethyl)-2-thia-4-azabicyclo[4.1.0]hept-3-en-5-yl)-4-fluorophenyl)amino)pyrido[3,2-d]pyrimidine-7-carbonitrile] |  |  |  |  | 9.13 nM | 0.0251 µM | 0.00851 µM | > 400 µM |
| COC[C@]12C[C@H]1[C@@](C)(c1cc(NC(=O)c3cnc(OCC4CC4)cn3)ccc1F)N=C(N)S2 [Example 1053, N-(3-((1S,5S,6S)-3-amino-1-(methoxymethyl)-5-methyl-2-thia-4-azabicyclo[4.1.0]hept-3-en-5-yl)-4-fluorophenyl)-5-(cyclopropylmethoxy)-2-pyrazinecarboxamide] | 5.9 nM | 0.108 µM | 0.0029 µM | 1420 µM |  |  |  |  |
| N#CC[C@]12C[C@H]1[C@@](CF)(c1cc(NC(=O)c3ccc(Cl)cn3)ccc1F)N=C(N)S2 [Example 718, N-(3-((1R,5S,6S)-3-amino-1-(cyanomethyl)-5-(fluoromethyl)-2-thia-4-azabicyclo[4.1.0]hept-3-en-5-yl)-4-fluorophenyl)-5-chloro-2-pyridinecarboxamide] | 3.67 nM | 0.00131 µM | 0.04 µM | 921 µM |  |  |  |  |
| CC(F)(F)COc1cnc2c(Nc3cc(F)c(F)c([C@@]4(C)N=C(N)S[C@@]5(C(F)F)C[C@@H]45)c3)nccc2n1 [Example 872, N-(3-((1S,5S,6S)-3-amino-1-(difluoromethyl)-5-methyl-2-thia-4-azabicyclo[4.1.0]hept-3-en-5-yl)-4,5-difluorophenyl)-2-(2,2-difluoropropoxy)pyrido[3,4-b]pyrazin-5-amine] | 19.3 nM | 0.441 µM | 2.66 µM | 239 µM |  |  |  |  |
| COC[C@]12C[C@H]1[C@@](C)(c1cc(NC(=O)c3cnc(Cl)cn3)cc(F)c1F)N=C(N)S2 [Example 1007] | 7.02 nM | 0.00484 µM | 0.73 µM | 460 µM |  |  |  |  |
| C#CCOc1cnc(C(=O)Nc2cc(F)c(F)c([C@@]3(C)N=C(N)S[C@@]4(C(=O)NC)C[C@H]43)c2)cn1 [Example 914, (1S,5S,6S)-3-amino-5-(2,3-difluoro-5-(((5-(2-propyn-1-yloxy)-2-pyrazinyl)carbonyl)amino)phenyl)-N,5-dimethyl-2-thia-4-azabicyclo[4.1.0]hept-3-ene-1-carboxamide] | 0.464 nM | 0.0108 µM | 0.000534 µM | 79.4 µM |  |  |  |  |
| CC#C[C@]12C[C@H]1[C@@](CF)(c1cc(Nc3nccc4nc(OCc5ncco5)cnc34)ccc1F)N=C(N)S2 [Example 958, N-(3-((1S,5S,6S)-3-amino-5-(fluoromethyl)-1-(1-propyn-1-yl)-2-thia-4-azabicyclo[4.1.0]hept-3-en-5-yl)-4-fluorophenyl)-2-(1,3-oxazol-2-ylmethoxy)pyrido[3,4-b]pyrazin-5-amine] | 1.2 nM | 0.0662 µM | 0.04 µM | 354 µM |  |  |  |  |

Next, values leading:

| IC50 [1] | IC50 [2] | IC50 [3] | IC50 [4] | IC50 ([1]; BACE1 FRET enzyme assay) | IC50 ([2]; BACE2 FRET enzyme assay) | IC50 ([3]; BACE1 cell-based assay) | IC50 ([4]; Cathepsin D FRET enzyme assay) | Compound |
| --- | --- | --- | --- | --- | --- | --- | --- | --- |
| 0.858 nM | 0.0217 µM | 0.00125 µM | 1110 µM |  |  |  |  | CON(C)C(=O)[C@]12C[C@H]1[C@@](C)(c1cc(NC(=O)c3cnc(OCC(F)(F)F)cn3)ccc1F)N=C(N)S2 [Example 984, (1S,5S,6S)-3-amino-5-(2-fluoro-5-(5-(2,2,2-trifluoroethoxy)pyrazine-2-carboxamido)phenyl)-N-methoxy-N,5-dimethyl-2-thia-4-azabicyclo[4.1.0]hept-3-ene-1-carboxamide] |
| 2.92 nM | 0.0294 µM | 0.0086 µM | 354 µM |  |  |  |  | C[C@]1(c2cc(Nc3nccc4nc(OCc5cocn5)cnc34)ccc2F)N=C(N)S[C@]2(CO)[C@H]1C2(F)F [Example 706, ((1S,5S,6R)-3-amino-7,7-difluoro-5-(2-fluoro-5-((2-(1,3-oxazol-4-ylmethoxy)pyrido[3,4-b]pyrazin-5-yl)amino)phenyl)-5-methyl-2-thia-4-azabicyclo[4.1.0]hept-3-en-1-yl)methanol] |
| 1.4 nM | 0.317 µM | 0.018 µM | 1240 µM |  |  |  |  | COC[C@]12C[C@H]1[C@@](C)(c1cc(NC(=O)c3cnc(OCC(C)C)cn3)ccc1F)N=C(N)S2 [Example 1056, N-(3-((1S,5S,6S)-3-amino-1-(methoxymethyl)-5-methyl-2-thia-4-azabicyclo[4.1.0]hept-3-en-5-yl)-4-fluorophenyl)-5-(2-methylpropoxy)-2-pyrazinecarboxamide] |
| 0.574 nM | 0.0184 µM | 0.000624 µM | 468 µM |  |  |  |  | [2H]C([2H])([2H])OC[C@]12C[C@H]1[C@@](C)(c1cc(NC(=O)c3cnc(OCC#C)cn3)cnc1F)N=C(N)S2 [Example 851, N-(5-((1S,5S,6S)-3-amino-5-methyl-1-(((~2~H_3_)methyloxy)methyl)-2-thia-4-azabicyclo[4.1.0]hept-3-en-5-yl)-6-fluoro-3-pyridinyl)-5-(2-propyn-1-yloxy)-2-pyrazinecarboxamide] |
|  |  |  |  | 4.48 nM | 0.025 µM | 0.00281 µM | 268 µM | COc1cnc2c(Nc3cc(F)c(F)c([C@@]4(C)N=C(N)S[C@@]5(CF)C[C@H]54)c3)ncnc2c1 [Example 64, (1S,5S,6S)-5-(2,3-difluoro-5-((7-methoxypyrido[3,2-d]pyrimidin-4-yl)amino)phenyl)-1-(fluoromethyl)-5-methyl-2-thia-4-azabicyclo[4.1.0]hept-3-en-3-amine] |
| 2.08 nM | 0.0746 µM | 0.00712 µM | 1080 µM |  |  |  |  | C#CCOc1cnc2c(Nc3ccc(F)c([C@@]4(CF)N=C(N)S[C@@]5(Cn6cc(C)nn6)C[C@H]54)c3)nccc2n1 [Example 724, N-(3-((1S,5S,6S)-3-amino-5-(fluoromethyl)-1-((4-methyl-1H-1,2,3-triazol-1-yl)methyl)-2-thia-4-azabicyclo[4.1.0]hept-3-en-5-yl)-4-fluorophenyl)-2-(2-propyn-1-yloxy)pyrido[3,4-b]pyrazin-5-amine] |
